Measurements as given in PubChem BioAssay (NCI).
Where “and” joins values, the source holds several entries; their conditions need not be identical. Identical values can stand only once.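 Cultured in 96-well plates, cells were exposed to test compound for 48 hours across five concentrations. GI50 marks 50% less growth. TGI: concentration producing complete growth inhibition.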

Legend:
Test in all cases: NCI anticancer screen, dose series, 48 h
NCI-H522 lung = system: NCI-H522 lung
TK-10 renal = system: TK-10 renal
HCC-2998 colon = system: HCC-2998 colon
SF-295 CNS = system: SF-295 CNS
SK-OV-3 ovarian = system: SK-OV-3 ovarian
M14 melanoma = system: M14 melanoma
UO-31 renal = system: UO-31 renal
NCI-H226 lung = system: NCI-H226 lung
HL-60(TB) leukemia = system: HL-60(TB) leukemia
CCRF-CEM leukemia = system: CCRF-CEM leukemia

SMILES | GI50 (NCI-H522 lung) | TGI (NCI-H522 lung) | GI50 (TK-10 renal) | TGI (TK-10 renal) | GI50 (HCC-2998 colon) | TGI (HCC-2998 colon) | GI50 (SF-295 CNS) | TGI (SF-295 CNS) | GI50 (SK-OV-3 ovarian) | TGI (SK-OV-3 ovarian) | GI50 (M14 melanoma) | TGI (M14 melanoma) | GI50 (UO-31 renal) | TGI (UO-31 renal) | GI50 (NCI-H226 lung) | TGI (NCI-H226 lung) | TGI (HL-60(TB) leukemia) | TGI (CCRF-CEM leukemia) | GI50 (HL-60(TB) leukemia) | GI50 (CCRF-CEM leukemia)
Cc1ccc(Cl)cc1NC(=O)c1sc2nc3c(cc2c1N)C(=O)CCC3 | 2.17 µM | 4.95 µM | 8.99 µM | > 100 µM | > 100 µM | > 100 µM | 2.33 µM | 7.44 µM | 5.26 µM | > 100 µM | 6.31 µM | > 100 µM | > 100 µM | > 100 µM | > 100 µM | > 100 µM |  |  |  | 
N#CC1CCCCCCCCCCC(=O)N(CCCl)C1=O (stereo not drawn) |  | > 100 µM |  | > 100 µM |  | > 100 µM |  | > 100 µM |  | > 100 µM |  | > 100 µM |  | > 100 µM |  |  | > 100 µM | > 100 µM |  | 
COc1ccccc1NC(=O)CC(=O)N/N=C/c1ccc(N(CCC#N)S(=O)(=O)c2ccccc2)cc1 |  | > 100 µM |  | > 100 µM |  | > 100 µM |  | > 100 µM |  |  |  | > 100 µM |  | > 100 µM |  | > 100 µM | > 100 µM | > 100 µM |  | 
N#Cc1cccc(/C=N/N=C(\N)NO)c1 |  | > 100 µM |  | > 100 µM |  |  |  | > 100 µM |  | > 100 µM |  | > 100 µM |  | > 100 µM |  | > 100 µM | > 100 µM | > 100 µM |  | 
CN(C)CCNC(=O)c1ccc(NC(=O)c2nc([N+](=O)[O-])cn2C)cc1 |  | > 100 µM |  | > 100 µM |  |  |  | > 100 µM |  | > 100 µM |  | > 100 µM |  | > 100 µM |  | > 100 µM | > 100 µM | > 100 µM |  | 
O=C1C[C@@H]2/C(=C(O)\C=C\c3ccccc3)C(=O)C=C[C@@H]2O1 | 0.206 µM | 0.615 µM | 2.63 µM | 7.59 µM |  |  | 3.44 µM | 13.7 µM | 4.86 µM | 16.9 µM | 0.435 µM | 2.63 µM | 0.878 µM | 2.2 µM | 1.94 µM | 4.45 µM | 5.93 µM | 2.89 µM | 1.57 µM | 0.447 µM
COC(C)(C)C/C=C/C(C)=C/C=C/C(C)=C\C=C\C(C)=C\C=C\C=C(C)\C=C\C=C(C)\C=C\C=C(C)\C=C\CC(C)(C)OC | > 150 µg/mL | > 150 µg/mL | > 150 µg/mL | > 150 µg/mL | > 150 µg/mL | > 150 µg/mL |  |  |  |  | > 150 µg/mL | > 150 µg/mL | > 150 µg/mL | > 150 µg/mL | > 150 µg/mL | > 150 µg/mL | > 150 µg/mL | > 150 µg/mL | > 150 µg/mL | > 150 µg/mL
CC(C)OP(=O)(NC(=S)c1ccccc1)OC(C)C |  |  |  | > 100 µM |  | > 100 µM |  | > 100 µM |  | > 100 µM |  | > 100 µM |  | > 100 µM |  | > 100 µM |  | > 100 µM |  | 
COc1cc(-c2nc(SCCC(C)C)nc(Nc3ccc(S(N)(=O)=O)cc3)c2C#N)cc(OC)c1OC | 3.52 µM | > 100 µM | 3.5 µM | > 100 µM | 3.22 µM | > 100 µM | 2.71 µM | 7.35 µM |  |  | 2.9 µM | 24.7 µM | 1.82 µM | > 100 µM | 1.67 µM | 4.64 µM | 5.86 µM | > 100 µM | 2.3 µM | 2.88 µM
Cc1cc2c(C)nn(Cc3ccc(Cl)cc3)c2c(C#N)c1C |  |  |  | > 100 µM |  | > 100 µM |  | > 100 µM |  | > 100 µM |  |  |  | > 100 µM |  | > 100 µM | > 100 µM | > 100 µM |  | 
COc1cccc(/C=N/C(/N=C/c2cccc(OC)c2O)c2cccc(OC)c2O)c1O |  | 49.2 µM |  | 55.6 µM |  | 73.9 µM |  | 80 µM |  | 78.1 µM |  | 48.2 µM |  | 58.6 µM |  |  | 68.5 µM | > 100 µM |  | 
S=P(N1CC1)(N1CC1)N1CC1 | 15 µM and 125 µM | 33.6 µM and 273 µM and 329 µM | 44.5 µM and 127 µM | > 95.3 µM and 877 µM and 522 µM | 22.5 µM and 208 µM |  | 6.78 µM |  | 16 µM and 143 µM | 47.2 µM and 406 µM and 296 µM |  |  | 18.2 µM and 28.3 µM | 39.3 µM and 288 µM and 69 µM |  |  |  | > 85.8 µM and 622 µM | 0.942 µM and 1.95 µM | 2.11 µM
COC(=O)/C=C/c1cc2c(cc1-c1c(C(=O)O)cc(OC)c(OC)c1OC)OCO2 |  | > 10 µM |  | > 10 µM |  | > 10 µM |  | > 10 µM |  | > 10 µM |  | > 10 µM |  |  |  |  | > 10 µM | > 10 µM |  | 
COC(=O)CC[C@H](Cc1ccccc1)NC(=O)c1csc([C@@H](C[C@H](C(C)C)N(C)C(=O)[C@@H](NC(=O)[C@H]2CCCCN2C)C(C)C)OC(C)=O)n1 |  |  | > 25 µM | > 25 µM | 0.00386 µM | > 25 µM | < 0.0025 µM | > 25 µM | < 0.0025 µM | > 25 µM | < 0.0025 µM | > 25 µM | 0.0165 µM | > 25 µM |  |  |  | > 25 µM |  | 0.00289 µM
O=C1c2ccccc2-c2c1c1ccccc1c(=O)n2CCCn1ccnc1 | 2.14 µM | > 100 µM | 1.97 µM | 6.83 µM |  |  | 0.896 µM | 2.99 µM | 6.68 µM | > 100 µM | 5.71 µM | > 100 µM | 0.359 µM | > 100 µM | 1.35 µM | 3.04 µM | 2.18 µM | > 100 µM | 0.2 µM | 1.51 µM
CC1(C)C2C=CC1C(=O)CC2 (stereo not drawn) |  | > 100 µM |  | > 100 µM |  | > 100 µM |  | > 100 µM |  |  |  | > 100 µM |  | > 100 µM |  | > 100 µM | > 100 µM | > 100 µM |  | 
O=c1c(O)c(-c2cc(O)c(O)c(O)c2)oc2cc(O)cc(O)c12 |  | > 100 µM |  | > 100 µM |  |  |  | 36.3 µM |  | > 100 µM |  | > 100 µM |  | > 100 µM |  | 57.1 µM | > 100 µM | > 100 µM |  | 
O=C(O)CCc1nn2c(nc1=O)sc1ccc3ccccc3c12 |  |  |  | > 100 µM |  | > 100 µM |  | > 100 µM |  | > 100 µM |  | > 100 µM |  | > 100 µM |  | > 100 µM | > 100 µM | > 100 µM |  | 
Cc1ccc(O)c(NC(=O)c2ccc(CNc3ccnc(C(F)(F)F)c3)cc2)c1 |  |  | 10.8 µM | 40.1 µM | 7.45 µM | 23.2 µM | 1.35 µM | 12.2 µM | 3.87 µM | 36.7 µM | 5 µM | 24.2 µM | 1.12 µM | 13.3 µM | 4.52 µM | 38.8 µM | 14.8 µM | 17.7 µM | 1.21 µM | 0.496 µM
OCC#Cc1ccccc1C#CCCCCCC#Cc1ccccc1C#CCO | 14.6 µM | 29.6 µM | 27.1 µM | 76.8 µM |  |  | 16.9 µM | 33.8 µM | 31 µM | > 100 µM | 15.4 µM | 29.2 µM | 17.1 µM | 33.8 µM | 21.8 µM | 38.9 µM | 41.8 µM | 49.6 µM | 18.8 µM | 22.9 µM
CN(Cc1cc(C(C)(C)C)cc(Br)c1O)Cc1cc(C(C)(C)C)cc(Br)c1O |  | 7.33 µM |  | 5.88 µM |  |  |  | 14.3 µM |  | 22.2 µM |  | 14.9 µM |  | 12.7 µM |  | 13.3 µM | 7.71 µM | 10.4 µM |  | 
NC(N)=NS(=O)(=O)c1ccc(Nc2c3ccccc3nc3c(C(=O)Nc4ccc(S(N)(=O)=O)cc4)cccc23)cc1 |  | 68.7 µM |  | > 100 µM |  | > 100 µM |  | > 100 µM |  | > 100 µM |  | > 100 µM |  | > 100 µM |  |  | > 100 µM | > 100 µM |  | 
O=c1c2cc(Cl)ccc2sc2cccc(Cl)c12 |  | > 100 µM |  | > 100 µM |  |  |  | > 100 µM |  |  |  | > 100 µM |  | > 100 µM |  | > 100 µM | > 100 µM | > 100 µM |  | 
CCN(CC)c1ccc(N=Nc2ccc(-c3nc4ccc[n+](C)c4o3)cc2)cc1 |  | 18.5 µM |  | 24.7 µM |  |  |  | 27.9 µM |  | 34.1 µM |  | 24.8 µM |  | 25.4 µM |  | 27.6 µM | 7.32 µM | 19.8 µM |  | 
COc1cccc(NC(=O)/C(Cc2nc3ccccc3nc2C)=N/NC(=O)C[n+]2ccccc2)c1 |  |  |  | > 100 µM |  | > 100 µM |  | > 100 µM |  | > 100 µM |  | > 100 µM |  | > 100 µM |  | > 100 µM | > 100 µM | > 100 µM |  | 
O=C(NC12CC3CC(CC(C3)C1)C2)C(=O)c1c[nH]c2ccccc12 |  | 31.7 µM |  | 44.5 µM |  | 28 µM |  | 22.4 µM |  | 29.5 µM |  | 29.3 µM |  | 36.6 µM |  |  | 52.8 µM | 73.6 µM |  | 
Cc1cn(-c2cc(NC(=O)c3ccc(C)c(Nc4nccc(-c5cccnc5)n4)c3)cc(C(F)(F)F)c2)cn1 | 3.46 µM and 4.18 µM | > 10 µM and 24.4 µM | 5.26 µM and 4.07 µM | > 10 µM and 9.38 µM |  | > 65 µM | 3.16 µM and 2.78 µM | > 10 µM and 11.3 µM | > 10 µM and 3.91 µM | > 10 µM and 11.3 µM | 1.66 µM and 1.45 µM | 5.91 µM and 4.87 µM | 1.75 µM and 1.58 µM | 8.9 µM and 4.56 µM | > 10 µM and 16.2 µM | > 10 µM and 39.8 µM |  | > 32.3 µM |  | > 10 µM and 1.25 µM
CN(C)c1ccc(/C=c2\sc3nc4ccccc4n3c2=O)cc1 |  | > 100 µM |  | > 100 µM |  | > 100 µM |  | > 100 µM |  |  |  | > 100 µM |  | > 100 µM |  | > 100 µM | > 100 µM |  |  | 
